≈ marks a conversion by molar mass, not a printed value. Where two headings read alike, the source gives them in different places.
Columns and labels:
Acinetobacter = assay: Disk diffusion; format: cell-based; conditions: 37 isolates selected as resistant to beta-lactams
Enterobacter spp = assay: E-test susceptibility; format: cell-based
K. oxytoca = assay: E-test susceptibility; format: cell-based, Klebsiella oxytoca
E. coli [1] = assay: SMART 2003 Europe, microdilution; format: cell-based, Escherichia coli; conditions: 1106 isolates
Enterobacteriaceae = assay: SMART 2003 Europe, microdilution; format: cell-based; conditions: 1948 isolates
Klebsiella = assay: SMART 2003 Europe, microdilution; format: cell-based, Klebsiella spp.; conditions: 341 isolates
K. pneumoniae [2] = assay: E-test susceptibility; format: cell-based, Klebsiella pneumoniae
K. pneumoniae [3] = assay: MIC; format: cell-based, Klebsiella pneumoniae; conditions: for MIC: Klebsiella pneumoniae
[4] = system: inducible Enterobacteriaceae; assay: SMART 2003, intraabdominal isolates; format: cell-based
E. coli [5] = assay: E-test susceptibility; format: cell-based, Escherichia coli
[6] = system: Salmonella serotype Typhimurium; assay: Disk diffusion, food isolates Spain; format: cell-based; conditions: n = 53
[7] = system: Salmonella serotype Enteritidis; assay: Disk diffusion, food isolates Spain; format: cell-based; conditions: n = 96
[8] = system: Salmonella, other 49 serotypes; assay: Disk diffusion, food isolates Spain; format: cell-based; conditions: n = 115
S. pneumoniae (SPN) = assay: NCCLS broth microdilution, fluoroquinolones 1999–2004; format: cell-based, Streptococcus pneumoniae; conditions: for MIC50 / MIC90: Streptococcus pneumoniae
[9] = system: Streptococcus agalactiae strains P0162 and P0425; assay: Microdilution; format: cell-based
[10] = system: viridans group streptococci (VGS); assay: MIC; format: cell-based; conditions: 107 strains
MRSA = assay: Agar dilution MIC; format: cell-based, Staphylococcus aureus; conditions: Staphylococcus aureus, MRSA
[11] = system: glycopeptide intermediate Staphylococcus species (GISS); assay: VITEK II, screening plate and E test, blood isolates; format: cell-based, coagulase-negative Staphylococci; conditions: 73 GISS strains
MSSA = assay: Agar dilution MIC; format: cell-based, Staphylococcus aureus; conditions: Staphylococcus aureus, MSSA
S. pneumoniae [12] = assay: PROTEKT Italy, NCCLS microdilution; format: cell-based, Streptococcus pneumoniae
S. pneumoniae [13] = assay: Broth microdilution; format: cell-based, Streptococcus pneumoniae; conditions: 275 isolates
nontyphoidal Salmonella = assay: Agar dilution, isolates from chickens 1998–2004; format: cell-based, Salmonella spp.

## CCN1CCN(C(=O)N[C@@H](C(=O)N[C@@H]2C(=O)N3C(C(=O)O)=C(CSc4nnnn4C)CS[C@H]23)c2ccc(O)cc2)C(=O)C1=O [cefoperazone]
Acinetobacter
  resistant isolates: 100.0%

## CC1(C)S[C@@H]2[C@H](NC(=O)C(C(=O)O)c3ccccc3)C(=O)N2[C@H]1C(=O)O (stereo partly shown) [carbenicillin]
Acinetobacter
  resistant isolates: 100.0%

## CO/N=C(\C(=O)N[C@@H]1C(=O)N2C(C(=O)[O-])=C(C[N+]3(C)CCCC3)CS[C@H]12)c1csc(N)n1 [cefepime]
Enterobacter spp; ICU
  Susceptible isolates: 84%
Enterobacter spp; non ICU
  Susceptible isolates: 92%
K. oxytoca; ICU
  Susceptible isolates: 100%
K. oxytoca; non ICU
  Susceptible isolates: 96%
Acinetobacter
  resistant isolates: 21.6%
E. coli [1]
  per cent susceptible: 96%
Enterobacteriaceae
  per cent susceptible: 96%
Klebsiella
  per cent susceptible: 94%
K. pneumoniae [2]; ICU
  Susceptible isolates: 98%
K. pneumoniae [2]; non ICU
  Susceptible isolates: 100%
K. pneumoniae [3]
  MIC: > 64 µg/mL
[4]; A/P (N = 200)
  % susceptible: 89%
[4]; EU (N = 354)
  % susceptible: 97%
[4]; LA (N=113)
  % susceptible: 88%
[4]; NA (N = 163)
  % susceptible: 92%
E. coli [5]; ICU, SRGA breakpoints, tigecycline tentative S ≤2 μg/ml
  Susceptible isolates: 98%
E. coli [5]; non ICU
  Susceptible isolates: 99%

## CCN[C@@H]1C[C@H](N)[C@@H](O[C@H]2OC(CN)=CC[C@H]2N)[C@H](O)[C@H]1O[C@H]1OC[C@](C)(O)[C@H](NC)[C@H]1O [netilmicin]
[6]
  resistance rate (NCCLS M100-S13): 4%
Acinetobacter
  resistant isolates: 5.4%
[7]
  resistance rate (NCCLS M100-S13): 1%
[8]
  resistance rate (NCCLS M100-S13): 0%

## C[C@@H](O)[C@H]1C(=O)N2C(C(=O)O)=C(S[C@@H]3CN[C@H](C(=O)Nc4cccc(C(=O)O)c4)C3)[C@H](C)[C@H]12 [ertapenem]
E. coli [1]
  per cent susceptible: >99%
Enterobacteriaceae
  per cent susceptible: 99%
Klebsiella
  per cent susceptible: 99%
K. pneumoniae [3]
  MIC: > 16 µg/mL
[4]; A/P (N = 200)
  % susceptible: 98%
[4]; EU (N = 354)
  % susceptible: 98%
[4]; LA (N=113)
  % susceptible: 91%
[4]; NA (N = 163)
  % susceptible: 94%

## colistin
K. pneumoniae [3]; BSAC
  susceptibility category: susceptible

## CO/N=C1\CN(c2nc3c(cc2F)c(=O)c(C(=O)O)cn3C2CC2)CC1CN (stereo not shown) [GEMI, gemifloxacin]
S. pneumoniae (SPN)
  MIC range: 0.25 to 2 µg/mL
  MIC50: 0.5 µg/mL (≈ 1.28 µM)
  MIC90: 1 µg/mL (≈ 2.57 µM)
S. pneumoniae (SPN); 1999 (554)
  % I: 0.4%
  % S: 99.6%
  %R: 0.0%
  MIC50: ≤ 0.03 µg/mL
  MIC90: ≤ 0.03 µg/mL
S. pneumoniae (SPN); 2000 (508)
  % I: 0.2%
  % S: 99.6%
  %R: 0.2%
  MIC50: ≤ 0.03 µg/mL
  MIC90: ≤ 0.03 µg/mL
S. pneumoniae (SPN); 2001 (1.435)
  % I: 0.3%
  % S: 99.4%
  %R: 0.3%
  MIC50: 0.016 µg/mL (≈ 0.0411 µM)
  MIC90: 0.03 µg/mL (≈ 0.077 µM)
S. pneumoniae (SPN); 2002 (1.502)
  % I: 0.3%
  % S: 99.5%
  %R: 0.2%
  MIC50: 0.016 µg/mL (≈ 0.0411 µM)
  MIC90: 0.03 µg/mL (≈ 0.077 µM)
S. pneumoniae (SPN); 2003 (890)
  % I: 0.0%
  % S: 100.0%
  %R: 0.0%
  MIC50: 0.016 µg/mL (≈ 0.0411 µM)
  MIC90: 0.03 µg/mL (≈ 0.077 µM)
S. pneumoniae (SPN); 2004 (1.003)
  % I: 0.7%
  % S: 99.2%
  %R: 0.1%
  MIC50: 0.016 µg/mL (≈ 0.0411 µM)
  MIC90: 0.03 µg/mL (≈ 0.077 µM)
S. pneumoniae (SPN); All years (5.892)
  % I: 0.3%
  % S: 99.5%
  %R: 0.2%
  MIC50: 0.016 µg/mL (≈ 0.0411 µM)
  MIC90: 0.03 µg/mL (≈ 0.077 µM)
S. pneumoniae (SPN); read-out: MIC90 during the six years, 1999–2004
  MIC90: 0.03 µg/mL (≈ 0.077 µM)

## NC1CCN(c2c(F)cc3c(=O)c(C(=O)O)cn(C4CC4)c3c2Cl)C1 (stereo not shown) [clinafloxacin]
[9]; strain P0162 (ParC Ser79Phe, GyrA Glu85Ala)
  MIC: 0.25 µg/mL (≈ 0.683 µM)
[9]; strain P0425 (ParC Ser79Phe, GyrA Glu85Lys)
  MIC: 0.75 µg/mL (≈ 2.05 µM)

## [H]/N=C(/N)N[C@H]1[C@H](O)[C@@H](O)[C@H](O[C@@H]2O[C@@H](C)[C@](O)(C=O)[C@H]2O[C@@H]2O[C@@H](CO)[C@H](O)[C@@H](O)[C@@H]2NC)[C@@H](N/C(N)=N\[H])[C@@H]1O [streptomycin]
[6]
  resistance rate (NCCLS M100-S13): 53%
[10]
  high-level resistance: 10.3%
[7]
  resistance rate (NCCLS M100-S13): 1%
[8]
  resistance rate (NCCLS M100-S13): 59%

## CN(C)c1cc(NC(=O)CNC(C)(C)C)c(O)c2c1C[C@H]1C[C@H]3[C@H](N(C)C)C(O)=C(C(N)=O)C(=O)[C@@]3(O)C(O)=C1C2=O [Tigecycline]
Enterobacter spp; ICU
  Susceptible isolates: 91%
Enterobacter spp; non ICU
  Susceptible isolates: 96%
K. pneumoniae [2]; ICU
  Susceptible isolates: 93%
K. pneumoniae [2]; non ICU
  Susceptible isolates: 98%

## CO[C@H]1/C=C/O[C@@]2(C)Oc3c(C)c(O)c4c(O)c(c(/C=N/N5CCN(C)CC5)c(O)c4c3C2=O)NC(=O)/C(C)=C\C=C\[C@H](C)[C@H](O)[C@@H](C)[C@@H](O)[C@@H](C)[C@H](OC(C)=O)[C@@H]1C [rifampin]
MRSA
  MIC50: < 32 µg/mL
  MIC90: < 32 µg/mL
[11]
  resistance rate: 32,8%
MSSA
  MIC50: < 0.0075 µg/mL
  MIC90: < 0.0375 µg/mL
S. pneumoniae [12]; year 1: 2002
  susceptible: 96.7%
S. pneumoniae [12]; year 2: 2003
  susceptible: 98.9%
S. pneumoniae [13]
  Susceptibility: 99.3%

## trimethoprim/sulfadiazine [TS]
Nontyphoidal Salmonella; Belgian collection (caecal samples; Belgium, France, Netherlands)
  resistance: 18%
Nontyphoidal Salmonella; Germany (carcass meat)
  resistance: 12%
